Results reported in patent publication US20150119251A1, “AGRICULTURAL PLANT-PROTECTING AGENTS CONTAINING DIPEPTIDE DERIVATIVE AS ACTIVE INGREDIENT” (REPUBLIC OF KOREA (RURAL DEVELOPMENT ADMINISTRATION), priority 2012, published 2015).
Square brackets hold non-standard residues; d marks the D form. Peptide text beside a SMILES is read from it. * marks the point of attachment. Trt = c1ccc(C(c2ccccc2)(c2ccccc2)*)cc1; Boc = CC(C)(C)OC(=O)*

What was measured:
[1] = system: tobacco bacterial rot (Pectobacterium carotovorum); experiment: Suppression of tobacco bacterial rot; type: in vivo, Pectobacterium carotovorum SCC1
In short: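 Test compounds at 1, 10 and 100 ppm (from 20% methanol stock) were applied to tobacco leaves; 7 days later plants were sprayed with Pectobacterium carotovorum SCC1 at 10^8 cfu/mL and kept 3 days at 30° C. Lesion area scored visually as 0–100%.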

[2] = system: GUS gene induced by PR-1α disease-resistance promoter; experiment: PR-1a GUS activation on tobacco leaves (MUG fluorescence); type: in vivo, tobacco (Xanth-nc); settings: tobacco leaf injection, after three days
Description: After the tobacco (Xanth-nc) bound with GUS gene induced by PR-1α disease-resistance promoter was grown for 3 weeks, 100 μL of the diluted solution of Compound 74 was injected to second leaves with a syringe. After three days, the surrounding leaves were collected in an internal diameter size of 5 mm with a cork borer, the samples thus obtained were added to a 1.5 mL of an eppendorf tube, and 20 μL of GUS extraction buffer solution was further added, ground, and then centrifuged at 8000 G for 3 minutes to obtain supernatant. The same amount of 2 mM MUG (4-methyl umbellifryl-B-glucuronide) solution was added, reacted at 37° C. for 1 hour, and then 960 μL of stop buffer solution (0.2 M, Na2CO3 solution) was added to be 1 mL. Since then, the fluorescence was measured with a TKO 100 fluorometer (Hoefoer Scientific Instruments, USA). At this time, the fluorescence amount was calibrated using a MU (4-methyl umbellyferon) as a standard reagent, and the GUS activity was calculated using MU-mM/sample−10 mg/time. The results thus obtained are listed in the following Table 2 and illustrated in FIG. 2.

[3] = system: pepper phytophthora blight (Phytopthora capsici); experiment: Suppression of pepper phytophthora blight on leaves; type: in vivo; settings: 0.1 mM
[4] = system: pepper phytophthora blight (Phytopthora capsici); experiment: as above; type: in vivo; settings: for Lesion outbreak rate: pepper leaves
Description: (§1) The peppers were raised in the same method as Example 3, and then, the test compounds were dissolved in 20% methanol to make a stock solution, and a stock was diluted to the concentrations of 0.1, 1.0, and 10.0 ppm. The test solutions were sprayed on the leaves or drench-treated on the leaves. After 7 days, the pathogen of plant bacterial rot (Pectobacterium carotovorum SCC1) was cultured in a TSA medium for 27 hours, and then, wetted on an 8 mm diameter paper disc in the concentration of 10^8 cfu/mL. The paper disc was located in the center of the leaves that were cut roundly, and then, after about 7 days, the lesion area was measured. In the case of phytophthora, the potato agar medium cultured with the phytophthora (Phytophthora capsici) was cut in the internal diameter size of 5 mm with a cork borer, and then inoculated to the leaves. After 7 days, the lesion area was observed. In the case of a bacterial rot, when Compounds 6, 89, 93, and 95 were sprayed on the pepper leaves, the bacterial rot was not found in the concentration of 1 or 10 ppm as compared with the non-treated group. […] The Suppression of lesion formation on the leaves when these compounds were drench-treated to the roots can be explained as it was resulted from that systemic disease resistance was induced in the whole plant. These test results are illustrated in the photographs of FIGS. 5 to 9.

[5] = system: PR1, PR4, PR10, beta-1,3-glucanase, chitinase and peroxidase genes; experiment: Expression of defense genes in pepper plant (RT-PCR) after compound treatment and pathogen inoculation; type: in vivo; settings: pepper seedling, compound treated and then P. carotovora or P. capsici treated, FIG. 1
From the text: In order to testify the disease resistance expression in the case of treating the dipeptide derivative of the present invention to the seeding of pepper, PR-1, beta-1,3-glucanase, chitinase, PR4, peroxidase, and PR10 primer, and the seedling of pepper were used. The seedling of pepper was raised in a greenhouse for 4 weeks, Compounds were sprayed thereto in various concentrations, and then, after three or one week, phytophthora (Phytophthora capcisi) and the pathogen of a bacterial rot (Pectobacterium carotovorum) were respectively inoculated.
Since then, after 12, 24, and 48 hours, the respective pepper leaves were collected in an amount of 1 g, and then, stored at an ultralow temperature-room at […]. The stored plant leaves were pulverized along with liquid nitrogen, and then, […] was extracted by using a RNA extraction kit (Easy-Spin™IIP Total RNA Extraction Kit, Intron Biotechnology, Korea) and Ex Taq polymerase by Kishimoto et al. (2005) (Takara Biomedicals, Otsu, Japan). For amplification, 0.1 μg of cDNA, 10 pMol of each of forward and reverse primers, 250 nM of dNTPs, and 0.5 U of Ex Taq polymerase were added to 20 μl, of a buffer solution. PCR was performed at 94C and 58C in a thermal cycler (PTC-100, USA), and the products by PCR were analyzed under the condition of 1% agarose gel (in 0.5×TAE buffer) (80 V, 60 min). All the RT-PCR tests were repeated twice. […]

[6] = system: plant bacterial rot (Pectobacterium carotovorum SCC1); experiment: Suppression of bacterial rot on pepper leaves (paper disc on cut leaves); type: in vivo; settings: sprayed on the pepper leaves, 1 or 10 ppm
Description: as §1

[7] = system: anthracnose germ (Colletotrichum orbiculare); experiment: Suppression of anthracnose on cucumber leaves by seed treatment; type: in vivo; settings: seeds treated at 100 ppm for 2 hours, spores sprayed after 3 weeks, read after 7 days, FIG. 4
Description: Compound 61 or Compound 74 were deposited on the seeds of cucumbers in the concentration of 100 ppm for 2 hours, and after 3 weeks, the spores of anthracnose germ (Colletotrichum orbiculare) were sprayed in the concentration of 10^5 spore/mL thereto, and then, after 7 days, the disease outbreak was investigated. The results thus obtained are illustrated in the photographs of FIG. 4.

Phytophthora capsici = experiment: Suppression of phytophthora blight in pepper roots and leaves after drench inoculation; type: in vivo; settings: sprayed on leaves, roots drench-inoculated after 1 week, observed 7 days, FIG. 10
From the text: The peppers were raised in the same method as Example 3, Compound 85 was sprayed on the leaves, and then after 1 week, the Phytophthora capsici swarm suspension was drench-inoculated. While observing for 7 days, the lesion formation on the leaves and roots were investigated. […] The test results of Compound 85 on suppressing the outbreak of phytophthora blight are illustrated in FIG. 10.

CSC(=O)c1cccc2nnsc12 [BTH, benzo-1,2,3-thiadiazole-7-carbothio acid S-methyl ester, reference compound]
Lesion outbreak rate ([1]; Table 3, tobacco, 1 ppm): 90% | Lesion outbreak rate ([1]; Table 3, tobacco, 10 ppm): 90% | Lesion outbreak rate ([1]; Table 3, tobacco, 100 ppm): 90% | Lesion outbreak rate ([1]; Table 4, tobacco, 1 ppm): 88% | Lesion outbreak rate ([1]; Table 4, tobacco, 10 ppm): 88% | Lesion outbreak rate ([1]; Table 4, tobacco, 100 ppm): 88% | Lesion outbreak rate ([1]; Table 5, tobacco, 10 ppm): 25% | Lesion outbreak rate ([1]; Table 5, tobacco, 100 ppm): 25% | Lesion outbreak rate ([1]; Table 6, tobacco, 1 ppm): 100% | Lesion outbreak rate ([1]; Table 6, tobacco, 10 ppm): 100% | Lesion outbreak rate ([1]; Table 6, tobacco, 100 ppm): 100% | PR1a GUS expression ([2]; 0.1 mM): 324,000 nM MU/10 mg FW/1 hr | Lesion outbreak rate [3]: 17 area %

COC(=O)[C@H](Cc1ccccc1)NC(=O)[C@@H](N)CC(=O)O [Compound 89] (H-Asp-Phe-OMe)
Effect on suppressing the outbreak of pepper phytophthora blight or bacterial rot as compared with the non-treated control group ([4]; directly sprayed to the leaves, phytophthora blight or bacterial rot): excellent | Lesion formation, pepper phytophthora test ([4]; drench-treated, 1.0 or 10.0 ppm): no the lesion formations | Effect on suppression of the outbreak of pepper phytophthora blight as compared with the control drug BTH ([4]; in vivo): excellent effect | Lesion outbreak rate ([4]; 0.1 ppm): 9.3 area % | Lesion outbreak rate ([4]; 1.0 ppm): 2.3 area % | Expression of the genes of PR1, PR4, PR10, beta-1,3-glucanase, chitonase and peroxidase [5]: strongly expressed | Bacterial rot on pepper leaves as compared with the non-treated group [6]: not found

COC(=O)[C@@H]1CCCN1C(=O)[C@H](CSC(c1ccccc1)(c1ccccc1)c1ccccc1)NC(=O)OC(C)(C)C [Compound 61] (Boc-Cys(Trt)-Pro-OMe)
Lesion outbreak rate ([1]; Table 5, tobacco, 10 ppm): 20% | Lesion outbreak rate ([1]; Table 5, tobacco, 100 ppm): 16% | Anthracnose on the leaves of cucumber as compared with the non-treated group [7]: hardly found

CCC(C)C(NC(=O)OC(C)(C)C)C(=O)N1CCCC1C(=O)OC (stereo not drawn) [Compound 85] (Boc-Ile-Pro-OMe; configuration not given here)
Lesion outbreak rate ([4]; 0.1 ppm): 24 area % | Lesion outbreak rate ([4]; 1.0 ppm): 15 area % | Phytophthora blight (lesion formation) on the leaves and roots as compared with the control group (Phytophthora capsici): significantly suppressed

CCOC(=O)C(C)NC(=O)C(NC(=O)OC(C)(C)C)C(C)CC (stereo not shown) [Compound 80]
Lesion outbreak rate ([4]; 0.1 ppm): 14 area % | Lesion outbreak rate ([4]; 1.0 ppm): 8.9 area % | Expression of the genes of PR1, PR4, PR10, beta-1,3-glucanase, chitonase and peroxidase [5]: strongly expressed

COC(=O)[C@H]1CCCN1C(=O)[C@H](CSC(c1ccccc1)(c1ccccc1)c1ccccc1)NC(=O)OC(C)(C)C [Compound 74] (Boc-Cys(Trt)-[dP]-OMe)
Lesion outbreak rate ([1]; Table 6, tobacco, 1 ppm): 25% | Lesion outbreak rate ([1]; Table 6, tobacco, 10 ppm): 34% | Lesion outbreak rate ([1]; Table 6, tobacco, 100 ppm): 22% | Anthracnose on the leaves of cucumber as compared with the non-treated group [7]: hardly found | PR1a GUS expression ([2]; 0.1 ppm): 7,800 nM MU/10 mg FW/1 hr | PR1a GUS expression ([2]; 1.0 ppm): 15,000 nM MU/10 mg FW/1 hr | PR1a GUS expression ([2]; 10.0 ppm): 420,000 nM MU/10 mg FW/1 hr | PR1a GUS expression ([2]; 100.0 ppm): 860,000 nM MU/10 mg FW/1 hr
